Article PMC12822473, “A Novel FGFR3‐Targeting Antibody‐Drug Conjugate Induces Tumor Cell Apoptosis through the cGAS–STING Pathway in Bladder Cancer” (Advanced Science, 2025)

Biological target: T1, MAD2L1 (T24 cells; MAD2L1WT and mutants reconstituted in MAD2L1‐KD T24 cells) (Homo sapiens, UniProt Q13257)
T1 construct: MAD2L1 in human T24 cells: native, or WT / mutants re-expressed by lentivirus in knockdown cells; Western blot read-out
Assay: streptavidin pull-down, Western blot and MS
Format: biochemical
Settings: labelled compound; T24 lysate, 4 °C; competed by excess unlabelled A2

T1 sequence (Q13257 2-205, change not shown): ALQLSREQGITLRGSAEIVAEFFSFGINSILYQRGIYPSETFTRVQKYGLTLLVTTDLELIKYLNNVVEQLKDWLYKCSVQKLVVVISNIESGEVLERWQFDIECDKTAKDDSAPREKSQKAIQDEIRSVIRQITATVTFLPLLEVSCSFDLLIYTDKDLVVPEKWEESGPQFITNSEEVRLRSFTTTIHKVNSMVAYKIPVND

CCc1c2c(nc3cccc(F)c13)-c1cc3c(c(=O)n1C2)COC(=O)[C@@]3(CC)OC(=O)CCCC[C@@H]1SC[C@@H]2NC(=O)N[C@@H]21 [A2‐biotin]
streptavidin pull-down, Western blot and MS: pull‐down/Western blot analysis demonstrated that A2‐biotin directly binds to MAD2L1
